Source: PubChem BioAssay AID1918946 (Molecular Pharmacology Branch, DTP, NCI, 2023)

Test system: 885512-296-R-J2-PDC complex spheroid viability
Experiment: Anticancer human tumor 885512-296-R-J2-PDC patient-derived breast carcinoma cell line growth inhibition
Conditions: for IC50: curve of first compound; for viability, T/C: stronger effect = lower value
Text: Multicellular complex tumor spheroid response to LSD1 Inhibitor Iadademstat in combination with a variety of drugs and investigational agents in selected tumor cell lines
The current study was undertaken to assess response to LSD1 inhibitors in combination with standard-of-care drugs and investigational agents in solid tumor complex spheroid models as well as in the K-562 leukemia. Complex spheroids include a stromal component modeled by human endothelial cells (HUVEC) and fibroblasts modeled by human mesenchymal stem cells (MSCs). The concentration ranges selected for each drug and investigational agent were based upon clinically achievable concentrations if the clinical Cmax of the agent was known.
Compounds. The drugs and investigational agents used in this study are listed on Table 1. All of the agents used, including staurosporine (NSC755774) and gemcitabine (NSC613327), were obtained from the Developmental Therapeutics Program, NCI. FDA-approved anticancer drugs are available from the NCI at http://dtp.nci.nih.gov/branches/dscb/oncology_drugset_explanation.html. Drugs and investigational agents were >95% pure by proton nuclear magnetic resonance (NMR) and liquid chromatography/mass spectrometry (LC/MS). Stock solutions were prepared at 400x in DMSO, stored at -70 degrees C, and diluted in fresh medium prior to their use. The final concentration of DMSO in cell culture wells never exceeded 0.25% (v/v). The FDA-approved anticancer drug set is available from the Developmental Therapeutics Program at https://dtp.cancer.gov/organization/dscb/obtaining/available_plates.htm. All drugs and investigational agents were tested over a range starting from a high concentration at or near the clinical Cmax and decreasing in half-log increments. If the clinical Cmax for an agent had not been determined, the highest concentration tested was 10 microM.
Cell Lines. The patient-derived cancer cell (PDC) lines: 292921-168-R-J2-PDC, K24384-001-R-PDC, and 521955-158-R2-J5-PDC pancreatic carcinomas, 556581-035-R-J1 ovarian carcinoma, 324938-238-R-J1-PDC, 855422-203-R-J1-PDC and 883617-216-R-J1-PDC urothelial bladder carcinomas, 743489-274-T-PDC renal cell carcinoma, 138582-R-J1 Merkel cell tumor, K60290-347-R-J1 and K57222-313-R-J1-PDC glioblastomas, 653999-131-R-J2-PDC, LG0703-F948-PDC, and 349418-098-R-PDC non-small cell lung carcinomas, 885512-296-R-J2-PDC, 171881-019-R-J1-PDC breast carcinomas and 186277-243-T-J2-PDC and 233499-124-R-J2-PDC colon carcinomas were obtained from the NCI Patient-Derived Models Repository (PDMR, https://pdmr.cancer.gov). The established cell lines NCI/ADR-RES (RRID:CVCL_14520 and OVCAR-5 (RRID:CVCL_1628) ovarian carcinomas, 786-O (RRID:CVCL_1051) and A498 (RRID:CVCL_A498) renal cell carcinoma, NCI-H211 (ATCC, cat. CRL-5824; RRID:CVCL_1529), NCI-H196 (ATCC, cat. CRL-5823, RRID:CVCL_1509), SW 1271 (ATCC, cat. CRL-2177, RRID:CVCL_1716) and NCI-H1876 (ATCC, cat. CRL-5902, RRID:CVCL_1503) small cell lung carcinomas, MDA-MB-231 (RRID:CVCL_0062) and MDA-MB-468 (RRID:CVCL_0419)breast carcinomas (10-12). Pooled donor human umbilical vein endothelial cells (HUVEC, Lonza, cat. CC-2519) and human mesenchymal stem cells (hMSC, Lonza, cat. PT-2501) were purchased from Lonza (Walkersville, MD).
Cell Culture. All cells were maintained in an incubator at 37 degrees C and 5% CO2 with 95% humidity. The PDC lines were cultured according to standard operating procedures established by the NCI PDMR (https://pdmr.cancer.gov). Briefly all PDCs were thawed and cultured in Matrigel-coated flasks prepared with a working solution of 1X Ham's F-12 nutrient mix, without supplementation (Invitrogen, Waltham, MA, cat. 11765054), 100 U/mL penicillin-streptomycin (Invitrogen, cat. 15140122), and 2.5% Matrigel (Corning Inc., Corning, NY, cat. 354248) for the first three passages. […]

[1] = second compound 0.1 µM, first compound 0.000949 µM
[2] = second compound 0.1 µM, first compound 0.003 µM
[3] = second compound 0.1 µM, first compound 0.00949 µM
[4] = second compound 0.1 µM, first compound 0.03 µM
[5] = second compound 0.1 µM, first compound 0.0949 µM
[6] = second compound 0.1 µM, first compound 0.3 µM
[7] = second compound 0.316 µM, first compound 0.000949 µM
[8] = second compound 0.316 µM, first compound 0.003 µM
[9] = second compound 0.316 µM, first compound 0.00949 µM
[10] = second compound 0.316 µM, first compound 0.03 µM
[11] = second compound 0.316 µM, first compound 0.0949 µM
[12] = second compound 0.316 µM, first compound 0.3 µM
[13] = second compound 1 µM, first compound 0.000949 µM
[14] = second compound 1 µM, first compound 0.003 µM
[15] = second compound 1 µM, first compound 0.00949 µM
[16] = second compound 1 µM, first compound 0.03 µM
[17] = second compound 1 µM, first compound 0.0949 µM
[18] = second compound 1 µM, first compound 0.3 µM
[19] = second compound 3.16 µM, first compound 0.000949 µM
[20] = second compound 3.16 µM, first compound 0.003 µM
[21] = second compound 3.16 µM, first compound 0.00949 µM
[22] = second compound 3.16 µM, first compound 0.03 µM
[23] = second compound 3.16 µM, first compound 0.0949 µM
[24] = second compound 3.16 µM, first compound 0.3 µM
[25] = second compound 10 µM, first compound 0.000949 µM
[26] = second compound 10 µM, first compound 0.003 µM
[27] = second compound 10 µM, first compound 0.00949 µM
[28] = second compound 10 µM, first compound 0.03 µM
[29] = second compound 10 µM, first compound 0.0949 µM
[30] = second compound 10 µM, first compound 0.3 µM
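Note: spheroids exposed to agents for 7 days before viability read.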

CCc1c2c(nc3ccc(O)cc13)-c1cc3c(c(=O)n1C2)COC(=O)[C@]3(O)CC + NC1CC1c1ccc(-c2cccc(O)c2)cc1
IC50 (second compound 0.1 µM): < 0.949 nM | IC50 (second compound 0.316 µM): < 0.949 nM | IC50 (second compound 1 µM): < 0.949 nM | IC50 (second compound 3.16 µM): < 0.949 nM | IC50 (second compound 10 µM): < 0.949 nM | viability, T/C [1]: 1.84% | viability, T/C [2]: 1.73% | viability, T/C [3]: 1.08% | viability, T/C [4]: 1.22% | viability, T/C [5]: 1.37% | viability, T/C [6]: 1.16% | viability, T/C [7]: 2.42% | viability, T/C [8]: 1.57% | viability, T/C [9]: 1.3% | viability, T/C [10]: 1.37% | viability, T/C [11]: 1.16% | viability, T/C [12]: 1.05% | viability, T/C [13]: 1.79% | viability, T/C [14]: 1.95% | viability, T/C [15]: 1.46% | viability, T/C [16]: 1.26% | viability, T/C [17]: 1.14% | viability, T/C [18]: 1.13% | viability, T/C [19]: 2.13% | viability, T/C [20]: 1.76% | viability, T/C [21]: 1.07% | viability, T/C [22]: 1.01% | viability, T/C [23]: 0.8% | viability, T/C [24]: 0.78% | viability, T/C [25]: 2.37% | viability, T/C [26]: 2.17% | viability, T/C [27]: 1.55% | viability, T/C [28]: 0.87% | viability, T/C [29]: 0.91% | viability, T/C [30]: 0.8%

Nc1ccn(C2OC(CO)C(O)C2(F)F)c(=O)n1 (stereo not given) + NC1CC1c1ccc(-c2cccc(O)c2)cc1
IC50 (second compound 0.1 µM): < 0.949 nM | IC50 (second compound 0.316 µM): < 0.949 nM | IC50 (second compound 1 µM): < 0.949 nM | IC50 (second compound 3.16 µM): < 0.949 nM | IC50 (second compound 10 µM): < 0.949 nM | viability, T/C [1]: 13.8% | viability, T/C [2]: 2.18% | viability, T/C [3]: 2% | viability, T/C [4]: 2.39% | viability, T/C [5]: 2.84% | viability, T/C [6]: 2.16% | viability, T/C [7]: 17.7% | viability, T/C [8]: 2.09% | viability, T/C [9]: 1.82% | viability, T/C [10]: 2.16% | viability, T/C [11]: 2.14% | viability, T/C [12]: 2.23% | viability, T/C [13]: 12.1% | viability, T/C [14]: 2.01% | viability, T/C [15]: 2.01% | viability, T/C [16]: 2.18% | viability, T/C [17]: 2.05% | viability, T/C [18]: 2.5% | viability, T/C [19]: 15.3% | viability, T/C [20]: 2.08% | viability, T/C [21]: 2.46% | viability, T/C [22]: 1.83% | viability, T/C [23]: 2.59% | viability, T/C [24]: 2.46% | viability, T/C [25]: 15.8% | viability, T/C [26]: 2.15% | viability, T/C [27]: 2.26% | viability, T/C [28]: 2.65% | viability, T/C [29]: 2.46% | viability, T/C [30]: 3.06%

O=C(c1cc(Cc2n[nH]c(=O)c3ccccc23)ccc1F)N1CCN(C(=O)C2CC2)CC1 + NC1CC1c1ccc(-c2cccc(O)c2)cc1
IC50 (second compound 0.1 µM): 945 nM | IC50 (second compound 0.316 µM): 896 nM | IC50 (second compound 1 µM): 805 nM | IC50 (second compound 3.16 µM): 660 nM | IC50 (second compound 10 µM): 361 nM | viability, T/C (second compound 0.1 µM, first compound 0.0316 µM): 116% | viability, T/C (second compound 0.1 µM, first compound 0.1 µM): 106% | viability, T/C (second compound 0.1 µM, first compound 0.316 µM): 90.9% | viability, T/C (second compound 0.1 µM, first compound 1 µM): 48.6% | viability, T/C (second compound 0.1 µM, first compound 3.16 µM): 13.1% | viability, T/C (second compound 0.1 µM, first compound 10 µM): 4.93% | viability, T/C (second compound 0.316 µM, first compound 0.0316 µM): 103% | viability, T/C (second compound 0.316 µM, first compound 0.1 µM): 114% | viability, T/C (second compound 0.316 µM, first compound 0.316 µM): 76.6% | viability, T/C (second compound 0.316 µM, first compound 1 µM): 51.7% | viability, T/C (second compound 0.316 µM, first compound 3.16 µM): 10.8% | viability, T/C (second compound 0.316 µM, first compound 10 µM): 5.15% | viability, T/C (second compound 1 µM, first compound 0.0316 µM): 96.9% | viability, T/C (second compound 1 µM, first compound 0.1 µM): 105% | viability, T/C (second compound 1 µM, first compound 0.316 µM): 88.7% | viability, T/C (second compound 1 µM, first compound 1 µM): 40.4% | viability, T/C (second compound 1 µM, first compound 3.16 µM): 13.3% | viability, T/C (second compound 1 µM, first compound 10 µM): 4.98% | viability, T/C (second compound 3.16 µM, first compound 0.0316 µM): 111% | viability, T/C (second compound 3.16 µM, first compound 0.1 µM): 80.8% | viability, T/C (second compound 3.16 µM, first compound 0.316 µM): 75.9% | viability, T/C (second compound 3.16 µM, first compound 1 µM): 41.1% | viability, T/C (second compound 3.16 µM, first compound 3.16 µM): 9.4% | viability, T/C (second compound 3.16 µM, first compound 10 µM): 4.81% | viability, T/C (second compound 10 µM, first compound 0.0316 µM): 80.1% | viability, T/C (second compound 10 µM, first compound 0.1 µM): 70% | viability, T/C (second compound 10 µM, first compound 0.316 µM): 55.1% | viability, T/C (second compound 10 µM, first compound 1 µM): 22.2% | viability, T/C (second compound 10 µM, first compound 3.16 µM): 6.21% | viability, T/C (second compound 10 µM, first compound 10 µM): 4.07%
